Measured values published in patent publication US20010016952A1, “Pathogenesis of cardiomyopathy” (priority 1999, published 2001).
“Also recorded” adds a separate entry of the source.

Tests used:
Format in all cases: in vivo, mouse
Sgcd-null mice [1] = assay: Microfil perfusion of coronary arteries
From the text: The Microfil® perfusion technique was used in vivo in order to determine whether disruption of the SG-SSPN complex in smooth muscle of coronary arteries indeed leads to vascular perfusion abnormalities. Wild type, Sgca-null and Sgcd-null mice at the age of 2-6 months were perfused, and cleared sections of the heart were visualized using trans-illumination with low-power magnification. The coronary microvessels were distributed normally and were smoothly tapered in both wild type and Sgca-null mice. […] Pre- and poststenotic dilation as an appearance of microaneurysm was frequently associated with these constrictions. Extensive areas of focal vascular lumen narrowing and a generalized sparseness of perfusion were observed. […] Quantification of vascular abnormalities in Sgcd-null mice at different ages were determined by calculating the mean numbers of abnormal vessels ±SEM in 10 nonadjacent microscopic fields at a magnification of 10×. No lesions were detected in Sgca-null and wild type mice.
Microfil® perfusion. In order to study coronary microvascular perfusion mice were anesthetized with Phenobarbital 75 mg/kg body weight and a bilateral sternum incision was performed to expose the left atrium. 1-1.5 ml of Microfil®, a liquid silicon rubber (Flow tech, Carver, Mass.) was perfused into the left atrium. The heart continued beating for about 1 min and after contraction stopped the heart was rapidly excised and cured on ice for about 10 min. […] Microvascular perfusion was visualized with both epi- and tans-illumination and examined under low power magnification (×10-20). the vascular irregularities in Sgcd-null mice at different ages (2, 4, and 6 months) were quantified by counting the number of abnormal individual vessel segments in 10 nonadjacent microscopic field using a low magnification (10×) and the mean number of abnormal vessels were calculated for each mouse. An average number of abnormal vessels ±SEM were then calculated for each age group. Vessels segments with more than one abnormality were only counted once.

Sgcd-null mice [2] = assay: Treadmill exercise of Sgcd-null mice with Evans blue dye uptake and H&E histopathology of cardiac muscle
Procedure: Treadmill exercise is one of the primary methods used clinically to induce cardiovascular stress in human and animals (Fewell et al., Am. J. Physiol. 273: H1595-H1605 (1997)) and is used to detect cardiovascular abnormalities (e.g. coronary artery dysfunction) that may not be readily apparent at rest. […] All mice were injected with Evans blue dye (EBD) 8 hr before the exercise. EBD is a small molecular mass tracer that tightly complexes with serum albumin. Normally, this is a membrane impermeable molecule, but if the sarcolemma integrity is compromised this dye readily penetrates into the cytoplasm of muscle fibers (Matsuda et al., J. Biochem. (Tokyo) 118: 959-964 (1995); Straub et al., J. Cell Biol. 139: 375-385 (1997)). EBD uptake as well as routine histopathology was examined in the cardiac muscle.
Treadmill exercise. […] Animals were exercised at 12-17 m/min for about 10 min and for 25-30 m/min for the remaining 50 min. If an animal became exhausted, the shock bar of this lane was turned off and the animal was allowed to rest at the back of the treadmill for a short period of time. Wild type (n=20), Sgca- (n=20) and Sgcd-null mice (n=42) were divided in approximately equal numbers of male and females. All mice were injected with Evans blue dye (0.5 mg EBD/0.05 ml PBS) intraperitoneally 8 hr before the exercise. Animals were injected with 50 μl of this solution per 10-g body weight. […] The effect of Nicorandil treatment on treadmill performance in wild type (n=6), Sgca- (n=6) and Sgcd-null mice (n=20) was studied after 3 days of intraperitoneal injection of Nicorandil at a dose of 1 mg/kg body weight twice a day. Quantification of Evans blue positive stained areas in sections of cardiac muscle from Sgca- and Sgcd-null mice (n=20, each group) was done by using the Scion image program. The percentage of positive stained areas was calculated by dividing the area of staining by the total area of the analyzed heart section.

[3] = system: wild type or Sgca-null mice; assay: Treadmill exercise of wild type or Sgca-null mice after Nicorandil; conditions: after administration of Nicorandil
Procedure: Treadmill exercise. […] Animals were exercised at 12-17 m/min for about 10 min and for 25-30 m/min for the remaining 50 min. If an animal became exhausted, the shock bar of this lane was turned off and the animal was allowed to rest at the back of the treadmill for a short period of time. Wild type (n=20), Sgca- (n=20) and Sgcd-null mice (n=42) were divided in approximately equal numbers of male and females. All mice were injected with Evans blue dye (0.5 mg EBD/0.05 ml PBS) intraperitoneally 8 hr before the exercise. Animals were injected with 50 μl of this solution per 10-g body weight. All surviving animals were kept alive for 36-48 hr and serial sections of cardiac muscle were studied for Evans blue uptake and for histopathological signs of necrosis by using routine H&E technique. The effect of Nicorandil treatment on treadmill performance in wild type (n=6), Sgca- (n=6) and Sgcd-null mice (n=20) was studied after 3 days of intraperitoneal injection of Nicorandil at a dose of 1 mg/kg body weight twice a day. Quantification of Evans blue positive stained areas in sections of cardiac muscle from Sgca- and Sgcd-null mice (n=20, each group) was done by using the Scion image program. The percentage of positive stained areas was calculated by dividing the area of staining by the total area of the analyzed heart section.

Sgcd-null mice [4] = assay: Systemic blood pressure after Nicorandil; conditions: at the dose given
[5] = Sgcd-null mice after administration of Nicorandil

In the case of `O=C(NCCO[N+](=O)[O-])c1cccnc1` [Nicorandil], the “constrictions and focal luminal narrowing of the coronary microvascular bed (perfusion studies)” value (Sgcd-null mice [1]; Nicorandil treated Sgcd-null mice) is reported as “free of constrictions and focal luminal narrowing”, the “density of the vasculature (Microfil perfusion)” value (Sgcd-null mice [1]; [5]) is reported as “overall greater density of the vasculature” and the “vascular constrictions of coronary arteries (Microfil perfusion)” value (Sgcd-null mice [1]; [5]) is reported as “no evidence of vascular constrictions”. The “EBD uptake in cardiac muscle” value (Sgcd-null mice [2]; 2 months old exercised Sgcd-null mice, intraperitoneal Nicorandil for 3 days prior to the exercise) was “No EBD uptake was observed”, the “development of multiple myocardial ischemic lesions” value (Sgcd-null mice [2]; Sgcd-null mice (n=20), treadmill exercise, Nicorandil intraperitoneal 1 mg/kg body weight twice a day for 3 days prior to exercise) was “prevented mortality and the development of multiple myocardial lesions; also recorded: prevent the development of multiple myocardial ischemic lesions in all Sgcd-null mice” and the “mortality in treadmill stressed mice” value (Sgcd-null mice [2]; Sgcd-null mice, Nicorandil given prior to the application of physical stress) was “prevented mortality”. The “general behavior during exercise and cardiac muscle abnormalities” value [3] was “No alteration of the general behavior during exercise or any cardiac muscle abnormalities was observed” and the systemic blood pressure (Sgcd-null mice [4]) was “did not lower the systemic blood pressure”.
